# Measured values published in patent US10392428B2, “GLP-1 derivatives and uses thereof” (Novo Nordisk A/S, priority 2014, dated 2019).
# Key:
# human GLP-1 receptor [1] = target: T1, human GLP-1 receptor (Homo sapiens, UniProt P43220); test: In vitro potency: CRE luciferase reporter gene assay in BHK cells expressing the human GLP-1 receptor; format: cell-based; conditions: whole cell reporter gene assay, 3 h incubation, average of at least two replicates
# T1 construct: expressed in transfected cells; host or cells: membrane preparation from BHK cells, clone FCW467-12A (parent line BHKTS13)
# Method: The purpose of this example is to test the activity, or potency, of the GLP-1 derivatives in vitro. The in vitro potency is the measure of human GLP-1 receptor activation in a whole cell assay.
# In vitro potency was determined by measuring the response of the human GLP-1 receptor in a reporter gene assay. The assay was performed in a stably transfected BHK cell line that expresses the human GLP-1 receptor and contains the DNA for the cAMP response element (CRE) coupled to a promoter and the gene for firefly luciferase (CRE luciferase). When the human GLP-1 receptor is activated it results in the production of cAMP, which in turn results in the luciferase protein being expressed. When assay incubation is completed the luciferase substrate (luciferin) is added and the enzyme converts luciferin to oxyluciferin to produce bioluminescence. The luminescence is measured as the readout for the assay.
# The cells were cultured at 5% CO2 in cell culture medium. They were aliquoted and stored in liquid nitrogen. Before each assay an aliquot was taken up and washed twice in PBS before being suspended at the desired concentration in the assay specific buffer.
# Assay medium consisted of DMEM w/o phenol red, 10 mM Hepes and 1χ Glutamax. The assay buffer consisted of 2% ovalbumin and 0.2% Pluronic F-68 in assay medium.
# 1) Cell stocks were thawed in a 37° C. water bath.
# 2) Cells were washed three times in PBS.
# 3) Cells were counted and adjusted to 5×10^3 cells/50 μl (1×10^5 cells/ml) in assay medium. A 50 μl aliquot of cells was transferred to each well in the assay plate.
# 4) Stocks of the test compounds and reference compounds were diluted to a concentration of 0.2 μM in assay buffer. […] 8) A 100 μl aliquot of steadylite plus reagent was added to each well of the assay plate. […] 10) Each assay plate was read in a BioTek Synergy 2 Multi-Mode Reader.
# The data from the BioTek Synergy 2 Multi-Mode Reader were transferred to GraphPad Prism software. […]
# A minimum of two replicates was measured for each sample. The reported EC50 values are averages of all of the measured values for each compound.
# human GLP-1 receptor [2] = target: T1, human GLP-1 receptor; test: GLP-1 receptor binding: competitive binding assay (125I-GLP-1, SPA) on isolated membranes at low and high HSA; conditions: low HSA (max. 0.001% final assay concentration); read-out: Low HSA IC50
# Method: The purpose of this example is to test the receptor binding of the GLP-1 derivatives in vitro. The receptor binding is a measure of affinity of a derivative for the human GLP-1 receptor.
# Each derivative is added in a series of concentrations to isolated membranes containing the human GLP-1 receptor and displacement of the labelled ligand is monitored. The receptor binding is reported as the concentration at which half of the labelled ligand is displaced from the receptor, the IC50 value.
# Buffer 1 consisted of 20 mM Na-HEPES plus 10 mM EDTA and pH was adjusted to 7.4. Buffer 2 consisted of 20 mM Na-HEPES plus 0.1 mM EDTA and pH was adjusted to 7.4. Assay buffer consisted of 50 mM HEPES supplemented with 5 mM EGTA, 5 mM MgCl2, 0.005% Tween 20 and pH was adjusted to 7.4. An 8% albumin stock consisted of HSA dissolved at 8% (w/v) in assay buffer. An 0.02% albumin stock consisted of HSA dissolved at 0.02% (w/v) in assay buffer.
# The cells express the human GLP-1 receptor.
# The cells were grown at 5% CO2 in DMEM, 10% fetal calf serum, 1% Pen/Strep (Penicillin/Streptomycin) and 1.0 mg/ml of the selection marker G418.
# To make a membrane preparation the cells were grown to approximately 80% confluence. The cells were washed twice in phosphate-buffered saline and harvested. The cells were pelleted using a brief centrifugation and the cell pellet was kept on ice. […] The homogenate was centrifuged for 15 minutes. The pellet was re-suspended (homogenised) in 10 ml buffer 2 and centrifuged. This step was repeated once more. The resulting pellet was re-suspended in buffer 2 and the protein concentration was determined. The membranes were aliquoted and stored at minus 80° C.
# For the receptor binding assay in the presence of low HSA (0.005%) 50 μl of the assay buffer was added to each well of an assay plate.
# For the receptor binding assay in the presence of high HSA (2%) 50 μl of the 8% albumin stock was added to each well of an assay plate.
# Cell membrane aliquots were thawed and diluted to their working concentration. Fifty μl were added to each well in the assay plate.
# WGA SPA beads were suspended in assay buffer at 20 mg/ml. The suspension was diluted to 10 mg/ml in assay buffer just prior to addition to the assay plate. Fifty μl were added to each well in the assay plate.
# A 25 μl aliquot was reserved for measuring total counts/well.
# The assay plate was incubated for 2 h at 30° C.
# The assay plate was centrifuged for 10 min.
# The assay plate was read in a Packard TopCount NXT instrument.
# The data from the TopCount instrument were transferred to Graph Pad Prism software. Individual replicates were analysed using non-linear regression. IC50 values were calculated by the software and reported in nM. The reported values are averages of all of the measured values for each compound.
# [3] = test system: obese, diabetic mouse model (db/db mice); test: Pharmacodynamic study in db/db mice: acute effect on blood glucose and body weight; format: in vivo
# Method: The purpose of the study is to verify the acute effect of the GLP-1 derivatives on blood glucose (BG) and body weight (BW) in a diabetic setting.
# The GLP-1 derivatives of Examples 2-4 and 6-10 were tested in a single-dose study in an obese, diabetic mouse model (db/db mice) as described in the following.
# Six db/db mice per compound to be tested (from Taconic, Denmark), fed from birth with the diet NIH31 (NIH 31M Rodent Diet, commercially available from Taconic Farms, Inc., US, see www.taconic.com), were enrolled for the study at the age of approximately 10 weeks. At arrival to the animal facility the mice were given free access to standard chow (e.g. Altromin 1324, Brogaarden, Denmark) and tap water and kept at 24° C. After 1-2 weeks of acclimatisation, the basal blood glucose was assessed twice on two consecutive days (i.e. at 9 am). The mice were allocated to treatment groups based on matching blood glucose levels and body weights. […]
# On the day of dosing, blood glucose was assessed at time −½ h (8.30 am), the mice were weighed after this. […] On the day of dosing, blood glucose was assessed at times 1, 2, 4 and 8 h (10 am, 11 am, 1 pm and 5 pm) after dosing.
# On the following days, the blood glucose was assessed at time 24 h, 48 h, 72 h, and 96 h (all Example compounds), and for the GLP-1 derivatives of Examples […] blood glucose was further assessed daily up to 240 h after dosing. […]
# Samples for the measurement of blood glucose were obtained from the tail tip capillary of conscious mice. […] The glucose concentration was measured using the glucose oxidase method (glucose analyser Biosen 5040, EKF Diagnostic, GmbH, Germany). […]
# The data are presented as percent change in blood glucose or body weight measured at the 48 h time points. For example, the percent change in blood glucose level at 48 h for each individual is calculated as follows: [[(blood glucose level at 48 h)−(basal blood glucose level)]/(basal blood glucose level)]×100%], where basal blood glucose level refers to the level before the administration of any treatment−and vice versa for the body weight change. […]
# [4] = single s.c. dose 10 nmol/kg, 48 h vs basal
# T1 sequence (P43220 24-463): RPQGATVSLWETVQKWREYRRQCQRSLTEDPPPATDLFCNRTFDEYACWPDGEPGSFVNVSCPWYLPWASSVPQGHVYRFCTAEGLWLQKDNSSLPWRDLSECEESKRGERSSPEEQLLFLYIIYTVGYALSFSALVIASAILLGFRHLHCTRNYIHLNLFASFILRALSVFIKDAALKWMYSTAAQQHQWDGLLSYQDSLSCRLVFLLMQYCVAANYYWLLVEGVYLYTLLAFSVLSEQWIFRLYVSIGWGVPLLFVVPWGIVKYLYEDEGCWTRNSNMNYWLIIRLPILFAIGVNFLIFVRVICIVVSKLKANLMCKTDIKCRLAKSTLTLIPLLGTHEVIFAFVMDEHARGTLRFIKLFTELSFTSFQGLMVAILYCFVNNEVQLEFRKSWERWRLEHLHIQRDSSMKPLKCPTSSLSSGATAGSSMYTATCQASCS
smiles,measurement,setting,value
"CC[C@H](C)[C@H](NC(=O)[C@H](Cc1ccccc1)NC(=O)[C@H](CCC(=O)O)NC(=O)[C@H](CCCNC(=N)N)NC(=O)[C@H](C)NC(=O)[C@H](C)NC(=O)[C@H](CCC(N)=O)NC(=O)[C@H](CCC(=O)O)NC(=O)[C@H](CCC(=O)O)NC(=O)[C@H](CC(C)C)NC(=O)[C@H](Cc1ccc(O)cc1)NC(=O)[C@H](CO)NC(=O)[C@H](CO)NC(=O)[C@@H](NC(=O)[C@H](CC(=O)O)NC(=O)[C@H](CO)NC(=O)[C@@H](NC(=O)[C@H](Cc1ccccc1)NC(=O)[C@@H](NC(=O)CNC(=O)[C@H](CCC(=O)O)NC(=O)C(C)(C)NC(=O)[C@@H](N)Cc1c[nH]cn1)[C@@H](C)O)[C@@H](C)O)C(C)C)C(=O)N[C@@H](C)C(=O)N[C@@H](Cc1c[nH]c2ccccc12)C(=O)N[C@@H](CC(C)C)C(=O)N[C@H](C(=O)N[C@@H](CCCNC(=N)N)C(=O)NCC(=O)N[C@@H](CCCNC(=N)N)C(=O)N[C@@H](CCCCNC(=O)[C@@H](N)CCCCNC(=O)[C@@H](N)CCCCNC(=O)[C@@H](N)CCCCNC(=O)[C@@H](N)CCCCNC(=O)[C@H](CCCCNC(=O)CC[C@H](NC(=O)[C@H]1CC[C@H](CNC(=O)CCCCCCCCCCCCCCCCCCC(=O)O)CC1)C(=O)O)NC(=O)CC[C@H](NC(=O)[C@H]1CC[C@H](CNC(=O)CCCCCCCCCCCCCCCCCCC(=O)O)CC1)C(=O)O)C(=O)O)C(C)C [Example 10, N{Epsilon-37}-[(2S)-2-amino-6-[[(2S)-2-amino-6-[[(2S)-2-amino-6-[[(2S)-2-amino-6-[[(2S)-2,6-bis[[(4S)-4-carboxy-4-[[4-[(19-carboxynonadecanoylamino)methyl]cyclohexanecarbonyl]amino]butanoyl]amino]hexanoyl]amino]hexanoyl]amino]hexanoyl]amino]hexanoyl]amino]hexanoyl]-[Aib8,Glu22,Arg26,Arg34,Lys37]-GLP-1-(7-37)-peptide]",EC50,human GLP-1 receptor [1],0.15 nM
same,IC50,human GLP-1 receptor [2],19 nM
same,effect on BG,"[3]; after 48 h, single s.c. injection of either 3, 10 or 30 nmol/kg",not as pronounced
same,% change in blood glucose,[3]; [4],−3%
same,% change in body weight,[3]; [4],−3%
